Data published in ChEMBL document CHEMBL1201862, “PubChem BioAssay data set” (2004).
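Dose response: 5 concentrations. Exposure: 48 h. Format: 96-well plates. Endpoint: linear interpolation; highest concentration if not reached. Abbreviation: GI50, concentration required for 50% inhibition of growth.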 Activity calls are given as the source filed them. No stated cut-off is given here; in the data, active = GI50 up to about 1.1 µM and inactive = higher.

Experiments:
Assay in all cases: NCI tumour cell line growth inhibition, 48 h
[1] = system: SW-620
[2] = system: OVCAR-3
[3] = system: MOLT-4
[4] = system: RXF 393
[5] = system: 786-0
[6] = system: SK-MEL-28
[7] = system: SF-539
[8] = system: K562
[9] = system: HL-60
[10] = system: CAKI-1
[11] = system: HOP-92
[12] = system: UO-31
[13] = system: NCI-H23
[14] = system: LOX IMVI
[15] = system: SNB-75
[16] = system: MDA-N
[17] = system: NCI/ADR-RES
[18] = system: MDA-MB-231
[19] = system: COLO 205
[20] = system: T47D

Row | Structure (SMILES) | GI50 [1] | GI50 [2] | GI50 [3] | GI50 [4] | GI50 [5] | GI50 [6] | GI50 [7] | GI50 [8] | GI50 [9] | GI50 [10] | GI50 [11] | GI50 [12] | GI50 [13] | GI50 [14] | GI50 [15] | GI50 [16] | GI50 [17] | GI50 [18] | GI50 [19] | GI50 [20]
1 | COc1ccc2c(c1)O[C@@H]1c3ccc(OC)cc3OC[C@H]21 | 20.8 µM (inactive) | 34 µM (inactive) | 16.6 µM (inactive) | 22.4 µM (inactive) | 25.4 µM (inactive) | 40.5 µM (inactive) | 38.1 µM (inactive) | 6.11 µM (inactive) | 19.3 µM (inactive) | 29.6 µM (inactive) | 17.1 µM (inactive) | 30.1 µM (inactive) | 23.2 µM (inactive) | 17.9 µM (inactive) | 16 µM (inactive) | – | – | – | – | –
2 | CCCCCCN1CCc2c(C)c(C#N)c3nc4ccccc4n3c21 | 23.2 µM (inactive) | 11.6 µM (inactive) | – | 20.7 µM (inactive) | 42.9 µM (inactive) | 33.7 µM (inactive) | > 100 µM (inactive) | > 100 µM (inactive) | 11.7 µM (inactive) | – | 22.5 µM (inactive) | > 100 µM (inactive) | 45 µM (inactive) | 22.2 µM (inactive) | 32.4 µM (inactive) | 22.7 µM (inactive) | > 100 µM (inactive) | 5.73 µM (inactive) | 29.9 µM (inactive) | –
3 | COc1ccccc1C(=O)c1c(NCc2ccccc2)c(=O)c1=O | 18.2 µM (inactive) | > 100 µM (inactive) | 23.4 µM (inactive) | 0.0708 µM (active) | 40.2 µM (inactive) | 18.1 µM (inactive) | 0.0841 µM (active) | 27.5 µM (inactive) | 21 µM (inactive) | 35.2 µM (inactive) | > 100 µM (inactive) | > 100 µM (inactive) | > 100 µM (inactive) | 29.9 µM (inactive) | > 100 µM (inactive) | > 100 µM (inactive) | > 100 µM (inactive) | > 100 µM (inactive) | 28.3 µM (inactive) | –
4 | Cn1c2ccccc2c2c(-c3ccccc3)[n+]3ccccc3nc21 | 23.2 µM (inactive) | 23.3 µM (inactive) | 42.2 µM (inactive) | – | 23.2 µM (inactive) | 20.5 µM (inactive) | 34.8 µM (inactive) | 34 µM (inactive) | 24.8 µM (inactive) | > 100 µM (inactive) | 14.6 µM (inactive) | > 100 µM (inactive) | 23.2 µM (inactive) | 18.5 µM (inactive) | 19.5 µM (inactive) | – | > 100 µM (inactive) | 32.9 µM (inactive) | 43.1 µM (inactive) | 51.5 µM (inactive)
5 | CCOC(=O)CCC(NC(=O)c1ccc(OCc2ccc3nc(OC)c(OC)nc3c2)cc1)C(=O)OCC (configuration not stated) | > 100 µM (inactive) | 20.2 µM (inactive) | 22.7 µM (inactive) | 25.9 µM (inactive) | > 100 µM (inactive) | 44.6 µM (inactive) | 57.3 µM (inactive) | 22.3 µM (inactive) | 31.7 µM (inactive) | > 100 µM (inactive) | 40.9 µM (inactive) | 64.6 µM (inactive) | > 100 µM (inactive) | 80 µM (inactive) | 52.6 µM (inactive) | 24 µM (inactive) | – | – | 16.7 µM (inactive) | 31.7 µM (inactive)
6 | O=C(O)CSCC(=O)O | > 100 µM (inactive) | > 100 µM (inactive) | > 100 µM (inactive) | > 100 µM (inactive) | > 100 µM (inactive) | > 100 µM (inactive) | – | > 100 µM (inactive) | > 100 µM (inactive) | > 100 µM (inactive) | > 100 µM (inactive) | > 100 µM (inactive) | > 100 µM (inactive) | > 100 µM (inactive) | > 100 µM (inactive) | > 100 µM (inactive) | > 100 µM (inactive) | > 100 µM (inactive) | – | –
7 | N#Cc1c2ccc([N+](=O)[O-])cc2c(=O)n2c1sc1ccc(C(F)(F)F)cc12 | > 100 µM (inactive) | > 100 µM (inactive) | > 100 µM (inactive) | > 100 µM (inactive) | > 100 µM (inactive) | > 100 µM (inactive) | > 100 µM (inactive) | > 100 µM (inactive) | – | > 100 µM (inactive) | > 100 µM (inactive) | > 100 µM (inactive) | > 100 µM (inactive) | > 100 µM (inactive) | > 100 µM (inactive) | – | > 100 µM (inactive) | > 100 µM (inactive) | > 100 µM (inactive) | > 100 µM (inactive)
8 | Nc1ccccc1C(=O)/C=C/c1c(O)ccc2ccccc12 | > 100 µM (inactive) | > 100 µM (inactive) | > 100 µM (inactive) | > 100 µM (inactive) | > 100 µM (inactive) | > 100 µM (inactive) | > 100 µM (inactive) | > 100 µM (inactive) | > 100 µM (inactive) | > 100 µM (inactive) | > 100 µM (inactive) | > 100 µM (inactive) | > 100 µM (inactive) | 19.2 µM (inactive) | > 100 µM (inactive) | – | – | – | > 100 µM (inactive) | –
9 | N=C(N)N/N=C/c1c(-c2cc([N+](=O)[O-])c(Cl)cc2Cl)nc2n1CCS2 | 3.97 µM (inactive) | 8.04 µM (inactive) | 6.79 µM (inactive) | 41.5 µM (inactive) | 32.4 µM (inactive) | 5.16 µM (inactive) | 42.5 µM (inactive) | 2.88 µM (inactive) | 5.08 µM (inactive) | 40 µM (inactive) | 20.7 µM (inactive) | 18.2 µM (inactive) | 5.33 µM (inactive) | 6.35 µM (inactive) | – | – | > 100 µM (inactive) | 24.1 µM (inactive) | 2.66 µM (inactive) | 2.47 µM (inactive)
10 | Cc1cn(C2CC(OC(=O)c3ccc(Cl)cc3)C(COC(=O)c3ccc(Cl)cc3)O2)c(=O)[nH]c1=O (configuration not stated) | > 100 µM (inactive) | > 100 µM (inactive) | > 100 µM (inactive) | – | > 100 µM (inactive) | > 100 µM (inactive) | – | > 100 µM (inactive) | > 100 µM (inactive) | > 100 µM (inactive) | > 100 µM (inactive) | > 100 µM (inactive) | > 100 µM (inactive) | > 100 µM (inactive) | > 100 µM (inactive) | > 100 µM (inactive) | > 100 µM (inactive) | – | > 100 µM (inactive) | > 100 µM (inactive)
11 | CN(CC(=O)O)c1ncc2c(n1)CCCC2 | > 100 µM (inactive) | > 100 µM (inactive) | > 100 µM (inactive) | > 100 µM (inactive) | > 100 µM (inactive) | > 100 µM (inactive) | > 100 µM (inactive) | > 100 µM (inactive) | > 100 µM (inactive) | > 100 µM (inactive) | > 100 µM (inactive) | > 100 µM (inactive) | > 100 µM (inactive) | > 100 µM (inactive) | > 100 µM (inactive) | > 100 µM (inactive) | > 100 µM (inactive) | > 100 µM (inactive) | > 100 µM (inactive) | –
12 | O=C1[C@@H]2C(c3ccccc3Br)=NO[C@@H]2C(=O)N1c1ccc(Cc2ccc(N3C(=O)[C@H]4C(c5ccccc5Br)=NO[C@H]4C3=O)cc2)cc1 | > 100 µM (inactive) | > 100 µM (inactive) | > 100 µM (inactive) | 50.2 µM (inactive) | > 100 µM (inactive) | > 100 µM (inactive) | > 100 µM (inactive) | > 100 µM (inactive) | > 100 µM (inactive) | > 100 µM (inactive) | > 100 µM (inactive) | 54.8 µM (inactive) | > 100 µM (inactive) | > 100 µM (inactive) | 77.3 µM (inactive) | – | – | – | > 100 µM (inactive) | –
13 | C=CCC12CCC(=O)[C@@]1(C)CC=C(O)C2=O (some centres not stated) | > 100 µM (inactive) | > 100 µM (inactive) | > 100 µM (inactive) | > 100 µM (inactive) | > 100 µM (inactive) | > 100 µM (inactive) | > 100 µM (inactive) | – | > 100 µM (inactive) | > 100 µM (inactive) | > 100 µM (inactive) | > 100 µM (inactive) | – | > 100 µM (inactive) | > 100 µM (inactive) | – | – | – | > 100 µM (inactive) | –
14 | COc1cc2c(c(O)c1O)-c1ccc(OC)c(=O)cc1C(NC(C)=O)CC2 (configuration not stated) | 5.27 µM (inactive) | 2.4 µM (inactive) | 5.5 µM (inactive) | 14.6 µM (inactive) | 16.6 µM (inactive) | 24.8 µM (inactive) | 3.2 µM (inactive) | 3.64 µM (inactive) | 2.21 µM (inactive) | 78.5 µM (inactive) | 4.59 µM (inactive) | > 100 µM (inactive) | 5.06 µM (inactive) | 6.82 µM (inactive) | 2.57 µM (inactive) | – | – | – | 3.87 µM (inactive) | –
15 | NC(=O)/N=C1/CCC2C3CCCC2C13 | > 100 µM (inactive) | > 100 µM (inactive) | > 100 µM (inactive) | > 100 µM (inactive) | > 100 µM (inactive) | > 100 µM (inactive) | > 100 µM (inactive) | > 100 µM (inactive) | > 100 µM (inactive) | > 100 µM (inactive) | > 100 µM (inactive) | > 100 µM (inactive) | > 100 µM (inactive) | > 100 µM (inactive) | > 100 µM (inactive) | – | – | – | > 100 µM (inactive) | –
16 | Cc1c(N/C=C(\C#N)C(=O)c2ccc(Cl)cc2)c(=O)n(-c2ccccc2)n1C | 90.4 µM (inactive) | 72.1 µM (inactive) | – | > 100 µM (inactive) | > 100 µM (inactive) | > 100 µM (inactive) | > 100 µM (inactive) | 97.9 µM (inactive) | 38.7 µM (inactive) | > 100 µM (inactive) | > 100 µM (inactive) | 64.9 µM (inactive) | > 100 µM (inactive) | > 100 µM (inactive) | > 100 µM (inactive) | > 100 µM (inactive) | 43.9 µM (inactive) | > 100 µM (inactive) | > 100 µM (inactive) | –
